Like-named read-outs stand apart in the source and are kept apart here.
How the values were obtained:
human RIP1 = target: T1, human RIP1 (Homo sapiens, UniProt Q13546); assay: Inhibition of ADP-Glo RIP1 kinase activity; assay type: biochemical
T1 construct: made in house; host or cells: Sf-9 insect cells
T1 sequence (Q13546 1-671): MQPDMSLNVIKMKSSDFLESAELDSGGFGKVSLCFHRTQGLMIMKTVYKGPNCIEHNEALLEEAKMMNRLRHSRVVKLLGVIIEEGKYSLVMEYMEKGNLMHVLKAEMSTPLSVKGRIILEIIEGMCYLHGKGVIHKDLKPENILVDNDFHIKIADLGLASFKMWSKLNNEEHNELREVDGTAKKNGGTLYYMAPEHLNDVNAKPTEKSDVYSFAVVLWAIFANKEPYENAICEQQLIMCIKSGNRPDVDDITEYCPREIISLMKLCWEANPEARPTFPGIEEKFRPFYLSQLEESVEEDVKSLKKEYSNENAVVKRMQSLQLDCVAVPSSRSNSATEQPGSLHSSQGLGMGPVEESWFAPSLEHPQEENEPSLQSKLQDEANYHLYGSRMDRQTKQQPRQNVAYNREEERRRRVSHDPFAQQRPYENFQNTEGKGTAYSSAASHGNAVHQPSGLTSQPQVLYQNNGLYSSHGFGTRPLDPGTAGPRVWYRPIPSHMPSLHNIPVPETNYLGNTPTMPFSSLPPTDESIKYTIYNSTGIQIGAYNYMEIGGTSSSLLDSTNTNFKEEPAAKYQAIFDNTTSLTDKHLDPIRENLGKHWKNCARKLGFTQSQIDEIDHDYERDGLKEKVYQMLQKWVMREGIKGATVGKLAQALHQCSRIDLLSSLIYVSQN
Protocol: The human RIP1 gene was transduced into Sf-9 insect cells, and the RIP1 protein was purified by Ni+ affinity chromatography and then by S-200 molecular sieve to remove the protein multimers. The obtained RIP1 protein was stored at −70° C., and the activity of the RIP1 protein in catalyzing autophosphorylation was detected by the ADP-Glo™ Kinase Activity Assay Kit (Promega) and the inhibitory activity of the drug against the RIP1 kinase was determined.
100 nL of the compound was transferred to a 384-well assay plate. Two replicate wells were set for each concentration of each drug.
The RIP1 enzyme solution and ATP solution were formulated in an assay buffer (containing 50 mM HEPES pH 7.5, 30 mM MgCl2, 50 mM NaCl, 1 mM DTT, 0.02% CHAPS, and 0.5 mg/ml BSA). Then, 5 μL of the RIP1 enzyme solution (final concentration 50 nM) was added to the assay plate and incubated at room temperature for 1 h. 5 μL of the ATP solution (final concentration 10 μM) was added to the assay plate, and incubate at room temperature for 4 h. Then 5 μL of ADP-Glo reagent was added to the assay plate, and incubated at room temperature for 60 min. 5 μL of a kinase assay solution was added to the assay plate, and incubated at room temperature for 30 min. After readout on Envision, the inhibition rate in each well was calculated from the full-activity well and the background well, and the Ki of the compound was calculated by GraphPad Prism 7 software (using the Morrision equation to fit the curve and calculate the Ki).

Jurkat (FADD−/−) cells = assay: Inhibition of TNF-induced programmed Jurkat (FADD−/−) cell necrosis (Cell Titer-Glo); assay type: cell-based, human; details: Homo sapiens, Jurkat, 20 h, read-out: Cellular IC50 (M) Jurkat (FADD−/−)
Protocol: Two replicate wells were set for each concentration of each compound.
Jurkat (FADD^−/−) cells (human-derived peripheral blood leukemia T cell line, with FADD gene knocked out) were cultured in vitro. After growing to logarithmic growth phase, the cells were harvested, and centrifuged at 1000 rpm for 5 min. The supernatant was discarded, and the cells were resuspended in fresh medium and adjusted to a cell density of 5×10^5/mL. The cell suspension was added to the culture plate containing the drug (40 μL per well). In the treatment groups, 10 μL of TNF (tumor necrosis factor, final concentration 10 ng/mL) diluted with the cell culture medium was added to each well, and incubated for 20 h in a cell incubator (37° C., 5% CO2). Subsequently, 50 μL of Cell Titer-Glo solution was added to each well and incubated at room temperature for 10 min. Then, the luminescence was detected on BioTek plate reader to measure the intracellular ATP level. The effect of the test compounds in inhibiting TNF-induced cell necrosis was calculated from the full-activity well and background well (with the untreated DMSO control well as 100% cell viability), and the half inhibitory concentration (IC50) of the compound was calculated by Graphpad Prism statistical software.

[1] = TNF 10 ng/mL, intracellular ATP level

## COc1ncnc2cc3c(cc12)N(C)C(=O)[C@@H](NC(=O)c1cn(Cc2ccccc2)cn1)CO3 [RIP1-147]
Human RIP1
  Ki: 16.5 nM
Jurkat (FADD−/−) cells; [1]
  IC50: 1.69e-09 M

## CN1C(=O)[C@@H](NC(=O)c2cn(Cc3ccccc3)nn2)COc2ccc3cnccc3c21 [RIP1-110]
Human RIP1
  Ki: 14.6 nM
Jurkat (FADD−/−) cells; [1]
  IC50: 4.44e-09 M

## CN1C(=O)[C@@H](NC(=O)c2cn(Cc3ccccc3)cn2)COc2cc3[nH]nnc3cc21 [RIP1-137]
Human RIP1
  Ki: 13.3 nM
Jurkat (FADD−/−) cells; [1]
  IC50: 7.31e-09 M

## Cc1nc2cc3c(cc2[nH]1)OC[C@H](NC(=O)c1ncn(Cc2ccccc2)n1)C(=O)N3C [RIP1-068]
Human RIP1
  Ki: 42.8 nM
Jurkat (FADD−/−) cells; [1]
  IC50: 7.62e-09 M

## CN1C(=O)[C@@H](NC(=O)c2nnn(Cc3ccccc3)n2)COc2cc3[nH]nnc3cc21 [RIP1-139]
Human RIP1
  Ki: 20.3 nM
Jurkat (FADD−/−) cells; [1]
  IC50: 7.81e-10 M

## CN1C(=O)[C@@H](NC(=O)c2cn(Cc3ccccc3)nn2)COc2cc3occc3cc21 [RIP1-121]
Human RIP1
  Ki: 32.7 nM
Jurkat (FADD−/−) cells
  IC50: 1.37e-08 M

## CN1C(=O)[C@@H](NC(=O)c2cc(Cc3ccccc3)on2)COc2ccc3ncccc3c21 [RIP1-101]
Human RIP1
  Ki: 17.2 nM
Jurkat (FADD−/−) cells; [1]
  IC50: 5.5e-09 M

## CN1C(=O)[C@@H](NC(=O)c2cn(Cc3ccccc3)cn2)COc2ccc3cnccc3c21 [RIP1-109]
Human RIP1
  Ki: 6.85 nM
Jurkat (FADD−/−) cells; [1]
  IC50: 7.22e-10 M

## CN1C(=O)[C@@H](NC(=O)c2cc(Cc3ccccc3)on2)COc2cc3[nH]nnc3cc21 [RIP1-142]
Human RIP1
  Ki: 19.1 nM
Jurkat (FADD−/−) cells; [1]
  IC50: 1.86e-09 M

## CN1C(=O)[C@@H](NC(=O)c2nnc(Cc3ccccc3)o2)COc2cc3nccnc3cc21 [RIP1-134]
Human RIP1
  Ki: 21.9 nM
Jurkat (FADD−/−) cells; [1]
  IC50: 9.03e-09 M

## CN1C(=O)[C@@H](NC(=O)c2nnc(Cc3ccccc3)o2)COc2cc3occc3cc21 [RIP1-125]
Human RIP1
  Ki: 19.6 nM
Jurkat (FADD−/−) cells; [1]
  IC50: 8.43e-10 M

## CN1C(=O)[C@@H](NC(=O)c2cc(Cc3ccccc3)on2)COc2cc3[nH]ncc3cc21 [RIP1-021]
Human RIP1
  Ki: 10.3 nM
Jurkat (FADD−/−) cells; [1]
  IC50: 5.8e-10 M

## CN1C(=O)[C@@H](NC(=O)c2nnc(Cc3ccccc3)o2)COc2cc3[nH]nnc3cc21 [RIP1-153]
Human RIP1
  Ki: 12.8 nM
Jurkat (FADD−/−) cells
  IC50: 1.52e-09 M

## Cc1nc2cc3c(cc2[nH]1)OC[C@H](NC(=O)c1cn(Cc2ccccc2)cn1)C(=O)N3C [RIP1-067]
Human RIP1
  Ki: 28.6 nM
Jurkat (FADD−/−) cells
  IC50: 6.72e-09 M

## CN1C(=O)[C@@H](NC(=O)c2ncn(Cc3ccccc3)n2)COc2cc3[nH]nnc3cc21 [RIP1-136]
Human RIP1
  Ki: 17.8 nM
Jurkat (FADD−/−) cells; [1]
  IC50: 9.34e-09 M

## CN1C(=O)[C@@H](NC(=O)c2cn(Cc3ccccc3)nn2)COc2cc3[nH]nnc3cc21 [RIP1-138]
Human RIP1
  Ki: 19.8 nM
Jurkat (FADD−/−) cells; [1]
  IC50: 1.68e-08 M

## Cc1nc2cc3c(cc2[nH]1)OC[C@H](NC(=O)c1cc(Cc2ccccc2)on1)C(=O)N3C [RIP1-061]
Human RIP1
  Ki: 44 nM
Jurkat (FADD−/−) cells; [1]
  IC50: 5.86e-09 M

## CN1C(=O)[C@@H](NC(=O)c2nnc(Cc3ccccc3)[nH]2)COc2ccc3cnccc3c21 [RIP1-107]
Human RIP1
  Ki: 8.9 nM
Jurkat (FADD−/−) cells
  IC50: 1.07e-09 M

## CN1C(=O)[C@@H](NC(=O)c2ncn(Cc3ccccc3)n2)COc2ccc3ncccc3c21 [RIP1-098]
Human RIP1
  Ki: 20.9 nM
Jurkat (FADD−/−) cells; [1]
  IC50: 7.25e-10 M

## CN1C(=O)[C@@H](NC(=O)c2ncn(Cc3ccccc3)n2)COc2ccc3cnccc3c21 [RIP1-108]
Human RIP1
  Ki: 12.6 nM
Jurkat (FADD−/−) cells; [1]
  IC50: 1.64e-10 M

## CN1C(=O)[C@@H](NC(=O)c2nnc(Cc3ccccc3)[nH]2)COc2cc3ocnc3cc21 [RIP1-218]
Jurkat (FADD−/−) cells; [1]
  IC50: 1.24e-09 M

## CN1C(=O)[C@@H](NC(=O)c2nnc(Cc3ccccc3)[nH]2)CSc2ccc3cnccc3c21 [RIP1-102]
Jurkat (FADD−/−) cells; [1]
  IC50: 9e-10 M

## CN1C(=O)[C@@H](NC(=O)c2cnc(Cc3ccccc3)[nH]2)CSc2cc3c(ccn3C)cc21 [RIP1-050]
Jurkat (FADD−/−) cells; [1]
  IC50: 4.92e-07 M

## CN1C(=O)[C@@H](NC(=O)c2cc(Oc3cccc(F)c3)ccn2)COc2ccc3ncccc3c21 [RIP1-204]
Jurkat (FADD−/−) cells; [1]
  IC50: 3.04e-09 M

## CC(=O)n1ncc2cc3c(cc21)SC[C@H](NC(=O)c1cc(Cc2ccccc2)on1)C(=O)N3C [RIP1-018]
Jurkat (FADD−/−) cells; [1]
  IC50: 2.7e-10 M
